Test results taken from US20250127787A1, “METHODS FOR TREATING PERIPHERAL NEUROPATHY” (University of Pittsburgh - Of the Commonwealth System of …, priority 2021, published 2025).
Entries after “also recorded” stand apart in the source; their conditions may differ.

Key:
[1] = tested on: superoxide dismutase (SOD1); experiment: SOD1 expression in rat epidermis after sciatic nerve injury, Western immunoblotting; format: in vivo; details: 8-AG 5 mg/kg/day in drinking water
Experimental: Animals. This study employed female Harlan Sprague Dawley (HSD) rats (3-4 mo; Envigo, Indianapolis, IN) and were divided into the following groups: 1) Control, 2) Sciatic nerve crush (day 0, sacrifice on day 6); 3) 8-aminoguanine (8-AG; 5 mg/kg/day in drinking water; beginning 2 weeks prior to nerve crush and continuing until sacrifice (day 6)). The dose of 8-AG is based on the work above and published experiments. Further, the water consumption/day was tracked. […] All tissues (hindpaw epidermis) were removed from isoflurane anesthetized rats and the tissue was used for various experimental approaches as described below. At the end of tissue removal, animals were sacrificed by thoracotomy. […]

protein carbonylation = experiment: Protein carbonylation in PAC-CIPN rat epidermis; format: in vivo; details: 8-AG 5 mg/kg/day in drinking water
Experimental: Animals: This study employed female Harlan Sprague Dawley (HSD) rats (3-4 mo; Envigo, Indianapolis, IN) and were divided into the following groups: 1) Control, 2) Cyclophosphamide (CYP, 75 mg/kg i.p. in saline vehicle; administered on days 0, 3 and 6 until sacrifice on day 8); 4) Paclitaxel (2 mg/kg i.p., 2 mg/kg i.p. in saline from a stock solution of 50/50 CremophorEL/ethanol); administered on days 0, 2, 4 and 6 until sacrifice on day 8; 4) 8-aminoguanine (8-AG; 5 mg/kg/day in drinking water; beginning 2 weeks prior to either CYP or PAC and continuing until sacrifice (day 8)). The dose of 8-AG was based on the experiments described above. […] All tissues (spinal cord and hindpaw epidermis) were removed from isoflurane anesthetized rats and the tissue was used for various experimental approaches as described below. At the end of tissue removal, animals were sacrificed by thoracotomy. […]

## Nc1nc2[nH]c(N)nc2c(=O)[nH]1 [8-AG, 8-Aminoguanine]
[1]
  effect on sciatic nerve injury-induced decrease in SOD1 expression: restored to control values; also recorded: normalized
[1]; listed as 8-Aminoguanine
  effect on sciatic nerve injury-induced decrease in SOD1 expression: normalized
Protein carbonylation
  effect on PAC-induced protein carbonylation: restored values to that of a control state; also recorded: significantly reduced
